Four molecules from ChEMBL document CHEMBL4308842, “Allosteric Modulators of HSP90 and HSP70: Dynamics Meets Function through Structure-Based Drug Design” (J Med Chem, 2018) can be followed below.

For assay [1], the system named is Jurkat. In words: Potency index, ratio of etoposide IC50 to compound IC50 for antiproliferative activity against human Jurkat T cells. The format is functional.
Assay [2] relates to Jurkat. The experiment in a line: Antiproliferative activity against human Jurkat T cells after 48 hrs. The format is functional, cell-based.
The subject of assay [3] is Jurkat. In words: Potency index, ratio of 17-AAG IC50 to compound IC50 for antiproliferative activity against human Jurkat T cells. The format is functional.
For assay [4], the system named is Jurkat. The experiment in a line: Potency index, ratio of novobiocin IC50 to compound IC50 for antiproliferative activity against human Jurkat T cells. The format is functional.
The next assay addresses Heat shock protein HSP90 (Homo sapiens, UniProt P07900+P08238). The experiment in a line: Binding affinity to HSP90 (unknown origin) by SPR analysis. Type of assay: protein assay. For orientation: Surface plasmon resonance follows binding to a sensor surface in real time, without labels.
A further assay deals with SK-BR-3. The experiment in a line: Antiproliferative activity against human SKBR3 cells. The format is functional, cell-based.
For another assay, the system named is MCF7. The experiment in a line: Antiproliferative activity against human MCF7 cells. The format is functional, cell-based.
Assay [5] has as its target Chaperone protein dnaK (Escherichia coli) (UniProt C3TRK2). In words: Inhibition of Escherichia coli DNAK ATPase activity after 3 hrs relative to control. The note with it: concentration not given here.

Sequence of Chaperone protein dnaK (Escherichia coli) (C3TRK2 1-638): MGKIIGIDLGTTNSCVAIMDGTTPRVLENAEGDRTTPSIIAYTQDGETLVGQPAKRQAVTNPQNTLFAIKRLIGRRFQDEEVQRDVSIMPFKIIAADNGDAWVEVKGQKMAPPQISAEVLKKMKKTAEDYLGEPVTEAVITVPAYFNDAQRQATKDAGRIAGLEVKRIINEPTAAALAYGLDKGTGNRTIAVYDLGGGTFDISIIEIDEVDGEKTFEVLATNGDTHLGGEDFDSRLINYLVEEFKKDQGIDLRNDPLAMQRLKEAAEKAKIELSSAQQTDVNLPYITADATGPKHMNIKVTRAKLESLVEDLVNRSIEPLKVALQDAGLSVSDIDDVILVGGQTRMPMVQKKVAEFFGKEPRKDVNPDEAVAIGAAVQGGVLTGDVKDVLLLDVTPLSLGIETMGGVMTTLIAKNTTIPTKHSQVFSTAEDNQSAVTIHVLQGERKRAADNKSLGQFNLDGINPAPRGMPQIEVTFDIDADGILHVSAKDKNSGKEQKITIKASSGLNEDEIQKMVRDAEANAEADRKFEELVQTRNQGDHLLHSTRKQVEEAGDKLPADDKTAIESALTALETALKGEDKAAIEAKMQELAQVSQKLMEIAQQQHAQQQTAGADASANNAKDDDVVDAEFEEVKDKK

As a reminder, the IC50 is the point on the concentration scale where inhibition reaches its midpoint. High values mean a need for much substance, low ones inhibition by little substance. By Kd is commonly meant the equilibrium constant for the complex coming apart. Read a low Kd as a tighter complex. Take `COc1cccc(-c2cc(C(=O)Nc3cc4cc(OC)c(OC(C)=O)c(C)c4oc3=O)ccc2OC)c1`: the entries for the “Ratio IC50” value with Jurkat [1], in the assay on Jurkat [3] and in the assay on Jurkat [4] were 3, 10 and 600, respectively. Also, the IC50 in the assay on Jurkat [2] was determined as 416 nM. On Heat shock protein HSP90, the dissociation constant Kd lay in the range of 1000 to 2000 nM.

For `CO[C@@H]1[C@@H](OC(=O)c2ccc(C)[nH]2)[C@@H](O)[C@H](Oc2ccc3c(O)c(NC(=O)c4c[nH]c(C(=O)Nc5c(O)c6ccc(O[C@@H]7OC(C)(C)[C@H](OC)[C@@H](OC(=O)c8ccc(C)[nH]8)[C@H]7O)c(C)c6oc5=O)c4C)c(=O)oc3c2C)OC1(C)C`, the IC50 with SK-BR-3 and in the assay on MCF7 was 2 µM in each case.

With `O=C(O[C@@H]1Cc2c(O)cc(O)cc2O[C@@H]1c1cc(O)c(O)c(O)c1)c1cc(O)c(O)c(O)c1` [EPIGALOCATECHIN GALLATE], the IC50 in the assay with SK-BR-3 and with MCF7 was 4 µM each time.

One may read the inhibition as the relative decrease from the control value, in per cent. `O=c1c(O)c(-c2cc(O)c(O)c(O)c2)oc2cc(O)cc(O)c12` registered an inhibition in assay [5] of 75%.
